Data reported in patent US7700584B2 (Hangzhou Minsheng Pharmaceuticals Co., Ltd., priority 2004, dated 2010).
Structures can show the parent of a compound that is named as a salt. Where two headings read alike, the source gives them in different places.

How the values were obtained:
Hepatitis B virus (HBV) = assay type: cell-based; conditions: 200 μg/ml; for (Value of the positive control - Measured Value) Value of the positive control × 100%: decrease of HBeAg relative to positive control; for OD450 of HBeAg: supernatant four days after infection, positive control 1.917, negative 0.057
HepG2 cells = test: Cell status of HepG2 cells treated with sample (HBV screening); assay type: cell-based; conditions: 200 μg/ml, HepG2, four days after infection
Method: 1.5 Screening for the agents: The HepG2 cells were counted and 1.5×10^4 cells/well were seeded into a 96-well plate. After incubation overnight in an atmosphere of CO2 at 37° C., each of the experimental samples in a given concentration was added to the cells. After incubation at 37 °C for 24 hrs, the HepG2 treated with the samples were infected with vAcGFPHBVc of 100 MOI. A negative control and a positive control were also included. Four days after infection, the growth of the cells were observed, and the HBV e antigen in the supernatant was measured with the HBV e antigen diagnostic kit.

MDCK (dog kidney) cells = test: Toxicity TC50 of the samples in MDCK cells (influenza screening); conditions: concentration of 50% toxicity
[1] = test system: mouse grafted sarcoma S-180; test: Activity against mouse grafted sarcoma S-180; assay type: in vivo, Kunming mice; conditions: for Tumor weight: X ± SD, n = 10; for inhibitory effect against mouse sarcoma S-180 (in words): three different concentrations (40, 20, 10 mg/kg), i.v.
Method: (1) Experimental animals: Kunming mice weighting 18-22 g;
(2) 100 mg/ml solutions of the 3 compounds were prepared, respectively, in water for injection (1% surface surfactant was added into the solution of Compound 6). 5-FU and camptothecine, 30 mg/kg and 1 mg/kg, respectively, were used as positive controls;
3. Route of Administration: Intravenous Injection.
(§1) The experiments were performed according to “Guideline for New Drugs (Western medicines) in Pre-clinical Stages” issued by Bureau of Drug Policy & Administration of the People's Republic of China, and the relevant methods in “Methodology of Pharmaceutical Experiments”, Xu Shuyun et al. ed. 120 male Kunming mice weighting […] were allowed to grow 3 days. No abnormality was observed. The mice were routinely inoculated in oxter with mouse sarcoma S-180, and weighted 4 hrs. after inoculation. The mice were randomly divided into 12 groups, 10 mice/group. Group 1 was given 0.3 ml of physiological saline as negative control; Group 2 was given 5-FU as positive control, 0.6 mg/mouse; Group 3 was given hydroxycamptothecine as positive control, 0.02 mg/mouse. Groups 4, 5 and 6 were injected with 10% Compound 6, 0.4 ml/mouse, 0.2 ml/mouse, and 0.1 ml/mouse, respectively. Groups 7, 8 and 9 were injected with 10% Compound 8, 0.4 ml/mouse, 0.2 ml/mouse, and 0.1 ml/mouse, respectively. Groups 10, 11, and 12 were injected with 10% Compound 20, 0.4 ml/mouse, 0.2 ml/mouse, and 0.1 ml/mouse, respectively. The tested compounds were administered on the next day after inoculation, once a day on alternate days, 6 doses totally administered. On the next day after the end dose, the mice were weighed and sacrificed. After the tumor was excised, body weight and tumor weight were recorded. The tumor inhibition rate was calculated based on the following formula: [(average tumor weight of the control groups−average tumor weight of the experimental groups)/average tumor weight of the control groups]×100%. The data was processed statistically. The above experiments were repeated three times.

[2] = test system: mouse grafted liver cancer H22; test: Activity against mouse grafted liver cancer H22; assay type: in vivo, Kunming mice; conditions: for Tumor weight: X ± SD, n = 10; for inhibitory effect against mouse grafted liver cancer H22 (in words): three different concentrations (40, 20, 10 mg/kg), i.v.
Method: as §1
The experiments were identical with the experiments for activity against mouse grafted sarcoma S-180, except that the cell line inoculated was liver cancer H22. The experiments were repeated three times.

[3] = test system: oral membrane herpes virus (VSV); assay type: cell-based
[4] = S-180, first experiment, 10 mg/kg i.v., 6 doses
[5] = S-180, first experiment, 20 mg/kg i.v., 6 doses
[6] = S-180, first experiment, 40 mg/kg i.v., 6 doses
[7] = S-180, second experiment, 10 mg/kg i.v., 6 doses
[8] = S-180, second experiment, 20 mg/kg i.v., 6 doses
[9] = S-180, second experiment, 40 mg/kg i.v., 6 doses
[10] = H22, first experiment, 10 mg/kg i.v., 6 doses
[11] = H22, first experiment, 20 mg/kg i.v., 6 doses
[12] = H22, first experiment, 40 mg/kg i.v., 6 doses
[13] = H22, second experiment, 10 mg/kg
[14] = H22, second experiment, 20 mg/kg
[15] = H22, second experiment, 40 mg/kg
[16] = H22, third experiment, 10 mg/kg
[17] = H22, third experiment, 20 mg/kg
[18] = H22, third experiment, 40 mg/kg

CC(C)C1CC23OC1(O)CC(=CBr)C2CCC3C (centres unmarked) [Compound 17, Curcumol monobromide]
(Value of the positive control - Measured Value) Value of the positive control × 100% (Hepatitis B virus (HBV)): 96.19%
OD450 of HBeAg (Hepatitis B virus (HBV)): 0.073
Cell status (HepG2 cells): Poor

C=C1CC2(OC(=O)C(C)C)OC3(CC2C(C)C)C(C)CCC13 (centres unmarked) [Compound 3, Curcumol isobutyrate]
TC50 (MDCK (dog kidney) cells; given as dilution of the stock solution): 1/8403 of the stock solution
(Value of the positive control - Measured Value) Value of the positive control × 100% (Hepatitis B virus (HBV)): −36.1502%
OD450 of HBeAg (Hepatitis B virus (HBV)): 2.61
Cell status (HepG2 cells): Normal

CC(C)C1CC23OC1(O)CC(=CN1CCNCC1)C2CCC3C (centres unmarked) [Compound 8, Curcumol piperazine hydrochloride]
Inhibition rate (%) [1, 4]: 16%
Tumor weight [1, 4]: 2.1 ± 0.42 g
Inhibition rate (%) [1, 5]: 20%
Tumor weight [1, 5]: 2.0 ± 0.40 g
Inhibition rate (%) [1, 6]: 48%
Tumor weight [1, 6]: 1.3 ± 0.24 g
Inhibition rate (%) [1, 7]: 15.4%
Tumor weight [1, 7]: 2.2 ± 0.31 g
Inhibition rate (%) [1, 8]: 15.4%
Tumor weight [1, 8]: 2.2 ± 0.29 g
Inhibition rate (%) [1, 9]: 46.1%
Tumor weight [1, 9]: 1.4 ± 0.37 g
Average weight (g)-after administration ([1]; mouse, in vivo, iv, 10 mg/kg): 22.5 g
Average weight(g)-after administration ([1]; mouse, in vivo, iv, 10 mg/kg): 23.5 g
Average weight (g)-after administration ([1]; mouse, in vivo, iv, 20 mg/kg): 21.8 g
Average weight(g)-after administration ([1]; mouse, in vivo, iv, 20 mg/kg): 21.8 g
Average weight (g)-after administration ([1]; mouse, in vivo, iv, 40 mg/kg): 23.0 g
Average weight(g)-after administration ([1]; mouse, in vivo, iv, 40 mg/kg): 23.0 g
inhibitory effect against mouse sarcoma S-180 (in words) [1]: had the inhibitory effect only when the concentration reached 40 mg/kg
Tumor weight [2, 10]: 3.02 ± 0.33 g
Inhibition rate (%) [2, 11]: 4.0%
Tumor weight [2, 11]: 2.9 ± 0.39 g
Inhibition rate (%) [2, 12]: 37.1%
Tumor weight [2, 12]: 1.9 ± 0.36 g
Tumor weight [2, 13]: 3.10 ± 0.33 g
Inhibition rate (%) [2, 14]: 4.0%
Tumor weight [2, 14]: 2.9 ± 0.39 g
Inhibition rate (%) [2, 15]: 36.1%
Tumor weight [2, 15]: 1.93 ± 0.36 g
Inhibition rate (%) [2, 16]: 2.3%
Tumor weight [2, 16]: 2.95 ± 0.33 g
Inhibition rate (%) [2, 17]: 7.3%
Tumor weight [2, 17]: 2.8 ± 0.39 g
Inhibition rate (%) [2, 18]: 33.4%
Tumor weight [2, 18]: 2.01 ± 0.36 g
Average weight (g)-after administration ([2]; mouse, in vivo, 10 mg/kg): 20.3 g
Average weight(g)-after administration ([2]; mouse, in vivo, 10 mg/kg): 22.3 g
Average weight (g)-after administration ([2]; mouse, in vivo, 20 mg/kg): 20.9 g
Average weight(g)-after administration ([2]; mouse, in vivo, 20 mg/kg): 21.9 g
Average weight (g)-after administration ([2]; mouse, in vivo, 40 mg/kg): 21.9 g
Average weight(g)-after administration ([2]; mouse, in vivo, 40 mg/kg): 21.4 g
Average weight(g)-after administration ([2]; mouse, in vivo, iv, 10 mg/kg): 22.3 g
Average weight(g)-after administration ([2]; mouse, in vivo, iv, 20 mg/kg): 21.9 g
Average weight(g)-after administration ([2]; mouse, in vivo, iv, 40 mg/kg): 22.4 g
inhibitory effect against mouse grafted liver cancer H22 (in words) [2]: some inhibitory effect only when the concentration reached 40 mg/kg
TC50 (MDCK (dog kidney) cells): 192.45 µg/mL

C=C1CC2(OS(=O)(=O)O)OC3(CC2C(C)C)C(C)CCC13 (centres unmarked) [Compound 20, Curcumol sulfonate]
(Value of the positive control - Measured Value) Value of the positive control × 100% (Hepatitis B virus (HBV)): −14.8148%
OD450 of HBeAg (Hepatitis B virus (HBV)): 2.201
Cell status (HepG2 cells): Normal

C=C1CC2(OS(=O)(=O)[O-])OC3(CC2C(C)C)C(C)CCC13.[Na+] (centres unmarked) [Compound 21, Curcumol sodium sulfonate]
Average weight (g)-after administration [1, 4]: 22.6 g
Tumor weight [1, 4]: 2.6 ± 0.23 g
Average weight (g)-after administration [1, 5]: 22.5 g
Inhibition rate (%) [1, 5]: 4%
Tumor weight [1, 5]: 2.4 ± 0.43 g
Average weight (g)-after administration [1, 6]: 23.1 g
Inhibition rate (%) [1, 6]: 8%
Tumor weight [1, 6]: 2.3 ± 0.31 g
Average weight(g)-after administration [1, 7]: 22.6 g
Inhibition rate (%) [1, 7]: 3.8%
Tumor weight [1, 7]: 2.5 ± 0.42 g
Average weight(g)-after administration [1, 8]: 22.2 g
Inhibition rate (%) [1, 8]: 3.8%
Tumor weight [1, 8]: 2.5 ± 0.38 g
Average weight(g)-after administration [1, 9]: 23.1 g
Inhibition rate (%) [1, 9]: 7.6%
Tumor weight [1, 9]: 2.4 ± 0.36 g
inhibitory effect against mouse sarcoma S-180 (in words) [1]: little inhibitory effect
Average weight(g)-after administration [2, 10]: 22.1 g
Tumor weight [2, 10]: 3.00 ± 0.29 g
Average weight(g)-after administration [2, 11]: 22.0 g
Tumor weight [2, 11]: 3.03 ± 0.41 g
Average weight(g)-after administration [2, 12]: 22.1 g
Inhibition rate (%) [2, 12]: 4.0%
Tumor weight [2, 12]: 2.9 ± 0.31 g
Average weight(g)-after administration [2, 13]: 22.1 g
Tumor weight [2, 13]: 3.03 ± 0.29 g
Average weight(g)-after administration [2, 14]: 22.0 g
Tumor weight [2, 14]: 3.02 ± 0.41 g
Average weight(g)-after administration [2, 15]: 22.1 g
Inhibition rate (%) [2, 15]: 1.0%
Tumor weight [2, 15]: 3.0 ± 0.31 g
Average weight (g)-after administration [2, 16]: 22.1 g
Tumor weight [2, 16]: 3.02 ± 0.29 g
Average weight (g)-after administration [2, 17]: 21.0 g
Tumor weight [2, 17]: 3.01 ± 0.41 g
Average weight (g)-after administration [2, 18]: 20.1 g
Inhibition rate (%) [2, 18]: 1.0%
Tumor weight [2, 18]: 3.0 ± 0.31 g
inhibitory effect against mouse grafted liver cancer H22 (in words) [2]: little inhibitory effect
TC50 (MDCK (dog kidney) cells): >1000 µg/mL
activity against VSV (in words) ([3]; 200 μg/ml): had the activity against VSV
activity against VSV (in words) ([3]; first round of the primary screening, 13 samples): some activities against VSV
(Value of the positive control - Measured Value) Value of the positive control × 100% (Hepatitis B virus (HBV)): 92.85%
OD450 of HBeAg (Hepatitis B virus (HBV)): 0.137
